62 compounds from PubChem BioAssay AID977613 (Broad Institute, 2014) can be followed below.

The source made the active and inactive calls. How the calls were made is not given here.

This assay has as its system Broad 7084-01 inhibitor HTS, set 2. Nature of the assay: single-concentration hits, screen 7084 set 2 (AID 977613).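 Further: host cells are infected with parasite promastigotes that become internalized.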

In the case of `C/C=C/c1ccc2c(c1)[C@H]1[C@H](CCN1C(=O)Cc1cccnc1)[C@@H](CO)N2C`, the active concentration is > 10 µM (inactive). `O=C(C[C@@H]1CC[C@@H]2[C@H](COC[C@H](O)CN2Cc2ccc3c(c2)OCO3)O1)Nc1ccccc1`: the active concentration is > 10 µM (inactive). The value for `O=C(C[C@H]1CC[C@H]2[C@@H](COC[C@@H](O)CN2Cc2ccc(Cl)cc2)O1)NCc1ccccc1Cl` was > 10 µM (inactive); that for `CCNC(=O)[C@H]1[C@H](CO)[C@H]2Cn3c(ccc(-c4ccccc4)c3=O)[C@H]2N1CC` was > 10 µM (inactive).

On to `COC(=O)c1ccc(CN2CC(=O)N3[C@@H](CO)[C@H](c4ccc(-c5cccnc5)cc4)[C@@H]3C2)cc1`, for which the active concentration is > 10 µM (inactive). The value for `COc1cccc(C(=O)Nc2ccc3c(c2)C(=O)N(C)[C@H]2CC[C@@H](CC(=O)NCCCN4CCOCC4)O[C@@H]2CO3)c1` was > 10 µM (inactive); that for `C[C@H](NC(=O)[C@H]1[C@H](CO)[C@H]2Cn3c(ccc(-c4ccncc4)c3=O)[C@H]2N1C)c1ccccc1` was > 10 µM (inactive). The value for `O=C(C[C@H]1CC[C@@H]2[C@H](COC[C@H](O)CN2C(=O)Cc2ccccc2)O1)NC1CCCC1` was > 10 µM (inactive); that for `O=C(C1CCOCC1)N1CC(=O)N2[C@@H](CO)[C@H](c3ccc(-c4cccnc4)cc3)[C@@H]2C1` was > 10 µM (inactive). For the compound `N#C[C@H]1[C@@H](c2ccccc2C2=CCCC2)[C@@H](CO)N1S(=O)(=O)c1ccccc1`, the active concentration was > 10 µM (inactive).

In the case of `CCNC(=O)C[C@H]1CC[C@@H]2[C@H](COC[C@H](O)CN2C(=O)C2CC2)O1`, the active concentration was > 10 µM (inactive). For `O=C(C[C@H]1CC[C@H]2[C@@H](COC[C@H](O)CN2CC2CCOCC2)O1)NCC1CCCCC1`, the active concentration was > 10 µM (inactive). With `C[C@H](O)C#Cc1ccc([C@@H]2[C@@H](CO)N3CCCCN(C(=O)c4ccc5c(c4)OCO5)C[C@H]23)cc1` the figure was > 10 µM (inactive).

For the compound `COc1ccc2c3c([nH]c2c1)[C@@H](CO)N(S(C)(=O)=O)CC31CCN(C(=O)Nc2ccccc2)CC1`, the active concentration was > 10 µM (inactive).

For the compound `OC[C@@H]1[C@@H](c2ccc(C#CC3(O)CCCC3)cc2)[C@@H]2CN(Cc3cncnc3)CCCCN12`, the active concentration is > 10 µM (inactive). Turning to `O=C(C[C@@H]1CC[C@H]2[C@@H](COC[C@H](O)CN2S(=O)(=O)c2cccc(F)c2)O1)Nc1ccc(-c2ccccc2)cc1`, the active concentration is > 10 µM (inactive). With `O=C(NCCc1ccncc1)[C@H]1[C@H](CO)[C@H]2Cn3c(ccc(-c4ccccc4)c3=O)[C@H]2N1C(=O)C1CC1` the figure was > 10 µM (inactive); with `O=C(C[C@H]1CC[C@H]2[C@@H](COC[C@@H](O)CN2Cc2nccs2)O1)NCc1ccccc1`, > 10 µM (inactive); with `O=C(C1CCOCC1)N1CC(=O)N2[C@@H](CO)[C@@H](c3ccc(C#CCc4ccccc4)cc3)[C@@H]2C1`, > 10 µM (inactive). Consider `COc1ccc2c3c([nH]c2c1)[C@@H](CO)N(Cc1ccccc1OC)CC31CN(C(C)=O)C1`, for which the active concentration is > 10 µM (inactive). Consider `CN(C)CCCNC(=O)C[C@H]1CC[C@H]2[C@@H](COC[C@@H](O)CN2CC2CC2)O1`, for which the active concentration was > 10 µM (inactive). With `O=C(C[C@@H]1CC[C@@H]2[C@H](COC[C@@H](O)CN2S(=O)(=O)c2ccccc2)O1)Nc1ccccc1` the figure was > 10 µM (inactive). Turning to `CN1C(=O)c2cc(NC(=O)c3ccc(F)c(F)c3)ccc2OC[C@@H]2O[C@@H](CC(=O)N[C@@H]3CCN(Cc4ccccc4)C3)CC[C@H]21`, the active concentration is > 10 µM (inactive).

`O=C(C[C@H]1CC[C@H]2[C@@H](COC[C@H](O)CN2C(=O)c2ccncc2)O1)NCc1ccc(-c2ccccc2)cc1`: the active concentration was > 10 µM (inactive). Consider `CN1C(=O)c2cc(NC(=O)c3cccc(F)c3)ccc2OC[C@H]2O[C@H](CC(=O)NCC3CCCCC3)CC[C@@H]21`, for which the active concentration was > 10 µM (inactive).

In the case of `CCCNC(=O)N1CC(=O)N2[C@H](CO)[C@H](c3ccc(-c4ccc(F)cc4)cc3)[C@H]2C1`, the active concentration was > 10 µM (inactive). With `O=C(C1CCCCC1)N1C[C@@H]2[C@H](c3ccccc31)[C@H](CO)N2C(=O)Cc1ccccn1` the figure was > 10 µM (inactive); with `COc1ccc(C#Cc2ccc([C@@H]3[C@@H](CO)N4C(=O)CN(C(=O)c5ccc(F)cc5)C[C@@H]34)cc2)cc1`, > 10 µM (inactive). Take `COc1ccc2c3c(n(C)c2c1)[C@@H](CO)N(C(=O)Nc1cccc(F)c1)CC31CN(Cc2nccs2)C1`: the active concentration is > 10 µM (inactive). The value for `CN1C(=O)c2cc(NC(=O)Cc3cccs3)ccc2OC[C@H]2O[C@H](CC(=O)N[C@H]3CCN(Cc4ccccc4)C3)CC[C@H]21` was > 10 µM (inactive); that for `COc1ccc2c3c([nH]c2c1)[C@@H](CO)NCC31CN(C(=O)Nc2ccc3c(c2)OCO3)C1` was > 10 µM (inactive); that for `O=C1CNC[C@@H]2[C@@H](c3ccc(C#CC4CCCCC4)cc3)[C@H](CO)N12` was > 10 µM (inactive).

As to `COC(=O)[C@H]1[C@H](CO)[C@H]2Cn3c(ccc(-c4cccc(OC)c4)c3=O)[C@H]2N1Cc1nccs1`, the active concentration was > 10 µM (inactive). The value for `C/C=C/c1ccc([C@@H]2[C@H](CO)N(CC3CCOCC3)C23CN(S(=O)(=O)CC)C3)cc1` was > 10 µM (inactive). With `Cc1ccc(S(=O)(=O)N2CC[C@@H]3[C@H]2c2cc(C#Cc4ccc(F)cc4)ccc2N[C@@H]3CO)cc1` the figure was > 10 µM (inactive); with `O=C(C[C@@H]1CC[C@H]2[C@@H](COC[C@H](O)CN2C(=O)c2ccncc2)O1)NCc1ccc(-c2ccccc2)cc1`, > 10 µM (inactive); with `O=C(C[C@@H]1CC[C@H]2[C@@H](COC[C@@H](O)CN2C(=O)Cc2ccccc2)O1)NC1CCCC1`, > 10 µM (inactive). With `N#C[C@H]1[C@@H](c2ccccc2-c2ccccc2F)[C@H](CO)N1C(=O)C1CCC1` the figure was > 10 µM (inactive); with `O=C(CC1CC1)N1CC(=O)N2[C@H](CO)[C@H](c3ccc(/C=C/c4ccccc4)cc3)[C@@H]2C1`, > 10 µM (inactive); with `COc1cccc(NC(=O)Nc2ccc3c(c2)C(=O)N(C)[C@H]2CC[C@@H](CC(=O)NCCc4ccccc4)O[C@H]2CO3)c1`, > 10 µM (inactive). Consider `C/C=C/c1ccc([C@H]2[C@@H](CO)N(CCC(F)(F)F)C23CN(C(=O)COC)C3)cc1`, for which the active concentration is > 10 µM (inactive). With `COc1ccc2c3c([nH]c2c1)[C@H](CO)N(C(=O)C1CCCCC1)CC31CCN(C)CC1` the figure was > 10 µM (inactive). With `COc1ccccc1S(=O)(=O)N1CC[C@@H]2[C@H]1c1cc(-c3ccc(C#N)cc3)ccc1N[C@@H]2CO`, the active concentration is > 10 µM (inactive). As for `O=C(Nc1ccccc1)N1CC(=O)N2[C@@H](CO)[C@@H](c3ccc(C#CC4CCCCC4)cc3)[C@@H]2C1`, the active concentration is > 10 µM (inactive). In the case of `CS(=O)(=O)N1C[C@@H](O)COC[C@@H]2O[C@H](CC(=O)NCc3ccc(-c4ccccc4)cc3)CC[C@H]21`, the active concentration was > 10 µM (inactive). The value for `COc1ccc2c3c(n(C)c2c1)[C@H](CO)N(C(=O)Nc1ccc(F)cc1)CC31CCN(S(=O)(=O)c2cccc(C)c2)CC1` was > 10 µM (inactive); that for `COc1ccccc1CN1CC[C@@H]2[C@@H](CO)Nc3ccc(C#Cc4ccccc4)cc3[C@@H]21` was > 10 µM (inactive).

`CC(=O)N1CC[C@@H]2[C@@H](CO)N(C)c3ccc(-c4ccc(C#N)cc4)cc3[C@@H]21`: the active concentration is > 10 µM (inactive). The value for `O=C(NCC(F)(F)F)[C@H]1[C@H](CO)[C@H]2Cn3c(cccc3=O)[C@H]2N1Cc1cccc(F)c1` was > 10 µM (inactive). For the compound `O=C(C[C@H]1CC[C@H]2[C@@H](COC[C@@H](O)CN2CC2CCOCC2)O1)NCC1CCCCC1`, the active concentration is > 10 µM (inactive).

`COc1ccc2c3c([nH]c2c1)[C@@H](CO)N(C(=O)c1cccnc1)CC31CCN(C(=O)CN(C)C)CC1`: the active concentration is > 10 µM (inactive). Consider `O=C(C[C@@H]1CC[C@@H]2[C@H](COC[C@H](O)CN2C(=O)c2ccccc2)O1)Nc1ccc(-c2ccccc2)cc1`, for which the active concentration is > 10 µM (inactive). With `Cc1noc(C)c1NC(=O)N1C[C@H](O)COC[C@H]2O[C@H](CC(=O)NCC3CCCCC3)CC[C@@H]21` the figure was > 10 µM (inactive); with `O=S(=O)(c1ccc(F)cc1)N1C[C@H]2[C@@H](c3ccccc31)[C@@H](CO)N2Cc1ccccc1Cl`, > 10 µM (inactive); with `CCCNC(=O)N1CC2(CCN(C(=O)c3cccc(F)c3)CC2)c2c([nH]c3cc(OC)ccc23)[C@H]1CO`, > 10 µM (inactive). Regarding `Cc1ccccc1S(=O)(=O)N1CCCCN2[C@H](CO)[C@@H](c3ccc(C#CCN(C)C)cc3)[C@H]2C1`, the active concentration is > 10 µM (inactive). On to `CCNC(=O)C[C@H]1CC[C@H]2[C@@H](COC[C@@H](O)CN2C(=O)C2CC2)O1`, for which the active concentration is > 10 µM (inactive). As to `Cc1cccc(S(=O)(=O)N2CC[C@@H]3[C@H]2c2cc(-c4ccccc4F)ccc2N(C)[C@H]3CO)c1`, the active concentration is > 10 µM (inactive). The value for `COc1ccc2c3c(n(C)c2c1)[C@H](CO)N(Cc1cccc(F)c1)CC31CCN(C(=O)Cc2ccccc2)CC1` was > 10 µM (inactive); that for `O=S(=O)(c1cccs1)N1CCCCN2[C@H](CO)[C@@H](c3ccc(/C=C/c4ccccc4)cc3)[C@@H]2C1` was > 10 µM (inactive); that for `O=C(C[C@@H]1CC[C@@H]2[C@H](COC[C@H](O)CN2C(=O)c2ccc3c(c2)OCO3)O1)NC1CCC1` was > 10 µM (inactive).

On to `CCC(=O)N1CC(=O)N2[C@H](CO)[C@H](c3ccc(-c4ccc(C#N)cc4)cc3)[C@@H]2C1`, for which the active concentration is > 10 µM (inactive).
